Like-named read-outs stand apart in the source and are kept apart here. A value given as a limit tells only on which side of the number the result lay.

The test deals with delta opioid receptor (Homo sapiens (Human), UniProt P41143). Nature of the test: In vitro delta-opioid receptor binding assay ([3H]-Naltrindole displacement).
Setting [1] is: recombinant receptor expressed in CHO-K1 cells, read-out: Ki [Average ± Std Deviation] Opioid Receptor Delta.

Chain of delta opioid receptor (P41143 whole entry): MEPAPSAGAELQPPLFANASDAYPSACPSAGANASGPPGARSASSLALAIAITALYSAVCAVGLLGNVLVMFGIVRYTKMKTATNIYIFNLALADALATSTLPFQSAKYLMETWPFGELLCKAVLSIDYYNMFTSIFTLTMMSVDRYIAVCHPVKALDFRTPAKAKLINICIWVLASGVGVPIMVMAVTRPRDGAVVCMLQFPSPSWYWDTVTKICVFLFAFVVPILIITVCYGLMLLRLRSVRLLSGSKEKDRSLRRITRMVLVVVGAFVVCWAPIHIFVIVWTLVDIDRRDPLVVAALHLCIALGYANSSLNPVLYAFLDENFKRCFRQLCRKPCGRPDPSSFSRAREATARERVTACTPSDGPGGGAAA

For `O=c1c(P(=O)(O)O)nc2ccccc2n1[C@H]1C[C@H]2CCC[C@@H](C1)N2C1CCCCCCC1` [DD, (4-((1R,3R,5S)-9-cyclooctyl-9-azabicyclo[3.3.1]nonan-3-yl)-3-oxo-3,4-dihydroquinoxalin-2-yl)phosphonic acid], the Ki under setting [1] is above 20 µM. The same measure, in the same setting: in the case of `O=c1c(P(=O)(O)O)nc2ccccc2n1[C@H]1C[C@H]2CC[C@@H](C1)N2C12CC3CC(CC1C3)C2` [BB, (4-((1R,3R,5S)-8-((2R,3as,5S,6aS)-octahydro-2,5-methanopentalen-3a-yl)-8-azabicyclo[3.2.1]octan-3-yl)-3-oxo-3,4-dihydroquinoxalin-2-yl)phosphonic acid] it was above 20 µM.

As for `O=C(NP(=O)(O)O)c1nc2ccccc2n([C@H]2C[C@H]3CCC[C@@H](C2)N3C2CCCCCCC2)c1=O` [KK, (4-((1R,3R,5S)-9-cyclooctyl-9-azabicyclo[3.3.1]nonan-3-yl)-3-oxo-3,4-dihydroquinoxaline-2-carbonyl)phosphoramidic acid], the Ki was above 20 µM.

The record behind these values is patent publication US9598447B2, “Phosphorus-substituted quinoxaline-type piperidine compounds and uses thereof” (Purdue Pharma L.P., priority 2010, dated 2017).
